Assay results: PubChem BioAssay (NCI)
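Five concentrations, 48 hours, 96-well plates. Abbreviation: GI50, concentration required for 50% inhibition of growth. TGI: concentration producing complete growth inhibition.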

Experiments:
Assay in all cases: growth of human tumour cells (NCI), 48 h
786-0 renal = system: 786-0 renal
A498 renal = system: A498 renal
A549 NSCLC = system: A549 NSCLC
ACHN renal = system: ACHN renal
BT-549 breast = system: BT-549 breast
CAKI-1 renal = system: CAKI-1 renal
CCRF-CEM leukemia = system: CCRF-CEM leukemia
COLO 205 colon = system: COLO 205 colon
DU-145 prostate = system: DU-145 prostate
EKVX NSCLC = system: EKVX NSCLC
HCC-2998 colon = system: HCC-2998 colon
HCT-116 colon = system: HCT-116 colon
HCT-15 colon = system: HCT-15 colon
HL-60(TB) leukemia = system: HL-60(TB) leukemia
HOP-62 NSCLC = system: HOP-62 NSCLC
HOP-92 NSCLC = system: HOP-92 NSCLC
HS 578T breast = system: HS 578T breast
HT29 colon = system: HT29 colon
IGROV1 ovarian = system: IGROV1 ovarian
K-562 leukemia = system: K-562 leukemia
KM12 colon = system: KM12 colon
LOX IMVI melanoma = system: LOX IMVI melanoma
M14 melanoma = system: M14 melanoma
MALME-3M melanoma = system: MALME-3M melanoma
MCF7 breast = system: MCF7 breast
MDA-MB-231 breast = system: MDA-MB-231 breast
MDA-MB-435 = system: MDA-MB-435
NCI-H226 lung = system: NCI-H226 lung
NCI-H23 lung = system: NCI-H23 lung
NCI-H460 lung = system: NCI-H460 lung
NCI-H522 lung = system: NCI-H522 lung
NCI/ADR-RES ovarian = system: NCI/ADR-RES ovarian
OVCAR-3 ovarian = system: OVCAR-3 ovarian
OVCAR-4 ovarian = system: OVCAR-4 ovarian
OVCAR-5 ovarian = system: OVCAR-5 ovarian
OVCAR-8 ovarian = system: OVCAR-8 ovarian
PC-3 prostate = system: PC-3 prostate
RPMI-8226 leukemia = system: RPMI-8226 leukemia
RXF 393 renal = system: RXF 393 renal
SF-268 CNS = system: SF-268 CNS
SF-295 CNS = system: SF-295 CNS
SK-MEL-2 melanoma = system: SK-MEL-2 melanoma
SK-MEL-28 melanoma = system: SK-MEL-28 melanoma
SK-MEL-5 melanoma = system: SK-MEL-5 melanoma
SK-OV-3 ovarian = system: SK-OV-3 ovarian
SN12C renal = system: SN12C renal
SNB-19 CNS = system: SNB-19 CNS
SNB-75 CNS = system: SNB-75 CNS
SR leukemia = system: SR leukemia
SW-620 colon = system: SW-620 colon
T-47D breast = system: T-47D breast
TK-10 renal = system: TK-10 renal
U251 CNS = system: U251 CNS
UACC-257 melanoma = system: UACC-257 melanoma
UACC-62 melanoma = system: UACC-62 melanoma
UO-31 renal = system: UO-31 renal

SMILES: COc1cc([C@@H]2c3cc4c(cc3[C@H](OC3OC5COC(c6ccccc6)OC5C(O)C3O)[C@H]3COC(=O)[C@H]23)OCO4)cc(OC)c1OC (some centres undefined)
- GI50 (786-0 renal): 594 nM
- TGI (786-0 renal): 19600 nM
- GI50 (A498 renal): 364 nM
- TGI (A498 renal): 3400 nM
- GI50 (A549 NSCLC): 344 nM
- TGI (A549 NSCLC): 5680 nM
- GI50 (ACHN renal): 596 nM
- TGI (ACHN renal): 12700 nM
- GI50 (BT-549 breast): 333 nM
- TGI (BT-549 breast): 1990 nM
- GI50 (CAKI-1 renal): 378 nM
- TGI (CAKI-1 renal): 22200 nM
- GI50 (CCRF-CEM leukemia): 570 nM
- GI50 (COLO 205 colon): 280 nM
- TGI (COLO 205 colon): 935 nM
- GI50 (DU-145 prostate): 324 nM
- TGI (DU-145 prostate): 2040 nM
- GI50 (EKVX NSCLC): 426 nM
- TGI (EKVX NSCLC): 24200 nM
- GI50 (HCC-2998 colon): 367 nM
- TGI (HCC-2998 colon): 4700 nM
- GI50 (HCT-116 colon): 346 nM
- GI50 (HCT-15 colon): 281 nM
- TGI (HCT-15 colon): 13700 nM
- GI50 (HL-60(TB) leukemia): 342 nM
- TGI (HL-60(TB) leukemia): 1460 nM
- GI50 (HOP-62 NSCLC): 456 nM
- TGI (HOP-62 NSCLC): 5320 nM
- GI50 (HOP-92 NSCLC): 2730 nM
- TGI (HOP-92 NSCLC): 18800 nM
- GI50 (HS 578T breast): 303 nM
- TGI (HS 578T breast): 1670 nM
- GI50 (HT29 colon): 356 nM
- TGI (HT29 colon): 2320 nM
- GI50 (IGROV1 ovarian): 337 nM
- TGI (IGROV1 ovarian): 1340 nM
- GI50 (K-562 leukemia): 359 nM
- TGI (K-562 leukemia): > 100000 nM
- GI50 (KM12 colon): 326 nM
- TGI (KM12 colon): 1550 nM
- GI50 (LOX IMVI melanoma): 427 nM
- TGI (LOX IMVI melanoma): 2840 nM
- GI50 (M14 melanoma): 351 nM
- TGI (M14 melanoma): 17900 nM
- GI50 (MALME-3M melanoma): 1170 nM
- TGI (MALME-3M melanoma): 4890 nM
- GI50 (MCF7 breast): 279 nM
- TGI (MCF7 breast): 4200 nM
- GI50 (MDA-MB-231 breast): 422 nM
- TGI (MDA-MB-231 breast): 29000 nM
- GI50 (MDA-MB-435): 245 nM
- TGI (MDA-MB-435): 3080 nM
- GI50 (NCI-H226 lung): 4580 nM
- TGI (NCI-H226 lung): 37600 nM
- GI50 (NCI-H23 lung): 418 nM
- TGI (NCI-H23 lung): 14500 nM
- GI50 (NCI-H460 lung): 282 nM
- TGI (NCI-H460 lung): 2920 nM
- GI50 (NCI-H522 lung): 322 nM
- TGI (NCI-H522 lung): 3300 nM
- GI50 (NCI/ADR-RES ovarian): 400 nM
- TGI (NCI/ADR-RES ovarian): 3000 nM
- GI50 (OVCAR-3 ovarian): 282 nM
- TGI (OVCAR-3 ovarian): 711 nM
- GI50 (OVCAR-4 ovarian): 663 nM
- TGI (OVCAR-4 ovarian): 11800 nM
- GI50 (OVCAR-5 ovarian): 2580 nM
- TGI (OVCAR-5 ovarian): 22500 nM
- GI50 (OVCAR-8 ovarian): 355 nM
- TGI (OVCAR-8 ovarian): 2120 nM
- GI50 (PC-3 prostate): 432 nM
- TGI (PC-3 prostate): 22500 nM
- GI50 (RPMI-8226 leukemia): 263 nM
- TGI (RPMI-8226 leukemia): 1000 nM
- GI50 (RXF 393 renal): 264 nM
- TGI (RXF 393 renal): 879 nM
- GI50 (SF-268 CNS): 428 nM
- TGI (SF-268 CNS): 2720 nM
- GI50 (SF-295 CNS): 270 nM
- GI50 (SK-MEL-2 melanoma): 978 nM
- TGI (SK-MEL-2 melanoma): 5640 nM
- GI50 (SK-MEL-28 melanoma): 710 nM
- TGI (SK-MEL-28 melanoma): 3060 nM
- GI50 (SK-MEL-5 melanoma): 242 nM
- TGI (SK-MEL-5 melanoma): 715 nM
- GI50 (SK-OV-3 ovarian): 441 nM
- TGI (SK-OV-3 ovarian): 18500 nM
- GI50 (SN12C renal): 368 nM
- TGI (SN12C renal): 20600 nM
- GI50 (SNB-19 CNS): 405 nM
- TGI (SNB-19 CNS): 16000 nM
- GI50 (SNB-75 CNS): 403 nM
- TGI (SNB-75 CNS): 8110 nM
- GI50 (SR leukemia): 310 nM
- TGI (SR leukemia): > 100000 nM
- GI50 (SW-620 colon): 396 nM
- TGI (SW-620 colon): 10800 nM
- GI50 (T-47D breast): 1730 nM
- TGI (T-47D breast): 5870 nM
- GI50 (TK-10 renal): 1130 nM
- TGI (TK-10 renal): 5510 nM
- GI50 (U251 CNS): 340 nM
- TGI (U251 CNS): 2020 nM
- GI50 (UACC-257 melanoma): 1070 nM
- TGI (UACC-257 melanoma): 3690 nM
- GI50 (UACC-62 melanoma): 515 nM
- TGI (UACC-62 melanoma): 22100 nM
- GI50 (UO-31 renal): 366 nM
- TGI (UO-31 renal): 3850 nM
